# Measured values published in patent US12077503B2, “Substituted cyclic amides and their use as herbicides” (FMC CORPORATION, priority 2015, dated 2024).
# Read-outs that look alike come from different tables or passages of the source.
# Assays:
# Assay type in all cases: in vivo
# Kochia (Kochia scoparia) = test: Test A preemergence; details: Bassia scoparia, pre-emergence, 240 h, preemergence, 0 to 100 scale where 0 is no effect and 100 is complete control, read-out: Kochia plant response rating
# Method in brief: (§1)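 Preemergence directed soil spray on seeded pots, or postemergence application to plants 2–10 cm, one- to two-leaf. Solvent mixture non-phytotoxic, with surfactant. Scored ~10 d later, visually, 0–100 vs untreated.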
# [1] = test system: barnyardgrass (Echinochloa crus-galli); test: Test A preemergence; details: Echinochloa crus-galli, pre-emergence, 240 h; for pest or weed control at 125 g/ha: 125 g ai/ha; for pest or weed control at 500 g/ha: 500 g ai/ha
# Method in brief: as §1
# [2] = test system: giant foxtail (Setaria faberii); test: Test A preemergence; details: Setaria faberi, pre-emergence, 240 h; for pest or weed control at 125 g/ha: 125 g ai/ha; for pest or weed control at 500 g/ha: 500 g ai/ha
# Method in brief: as §1
# [3] = test system: pigweed (Amaranthus retroflexus); test: Test A preemergence; details: Amaranthus retroflexus, pre-emergence, 240 h; for pest or weed control at 125 g/ha: 125 g ai/ha; for pest or weed control at 500 g/ha: 500 g ai/ha
# [4] = test system: ragweed (common ragweed, Ambrosia elatior); test: Test A preemergence; details: Ambrosia artemisiifolia, pre-emergence, 240 h, preemergence, 0 to 100 scale where 0 is no effect and 100 is complete control, read-out: Ragweed plant response rating
# Method in brief: as §1
# [5] = test system: ryegrass, Italian (Italian ryegrass, Lolium multiflorum); test: Test A preemergence; details: Lolium multiflorum, pre-emergence, 240 h, preemergence, 0 to 100 scale where 0 is no effect and 100 is complete control, read-out: Ryegrass, Italian plant response rating
# Method in brief: as §1
# [6] = test system: Galium (catchweed bedstraw, Galium aparine); test: Test A postemergence; details: Galium, post-emergence, 240 h, postemergence
# Method in brief: as §1
# [7] = test system: barnyardgrass (Echinochloa crus-galli); test: Test A postemergence; details: Echinochloa crus-galli, post-emergence, 240 h; for pest or weed control at 125 g/ha: 125 g ai/ha; for pest or weed control at 500 g/ha: 500 g ai/ha
# Method in brief: as §1
# [8] = test system: blackgrass (Alopecurus myosuroides); test: Test A postemergence; details: Alopecurus myosuroides, post-emergence, 240 h, postemergence
# Method in brief: as §1
# corn (Zea mays) = test: Test A postemergence; details: Zea mays, post-emergence, 240 h; for plant injury at 125 g/ha: 125 g ai/ha, read-out: Corn plant response rating (0 to 100 scale); for Corn plant response rating (crop injury, 0 = no effect, 100 = complete kill) at 500 g/ha: visual injury, 0 to 100 scale (0 no effect, 100 complete control), approx. 10 d
# Method in brief: as §1
# [9] = test system: giant foxtail (Setaria faberii); test: Test A postemergence; details: Setaria faberi, post-emergence, 240 h; for pest or weed control at 125 g/ha: 125 g ai/ha, read-out: Foxtail, Giant plant response rating (0 to 100 scale); for pest or weed control at 500 g/ha: 500 g ai/ha
# Method in brief: as §1
# [10] = test system: pigweed (Amaranthus retroflexus); test: Test A postemergence; details: Amaranthus retroflexus, post-emergence, 240 h; for pest or weed control at 125 g/ha: 125 g ai/ha, read-out: Pigweed plant response rating (0 to 100 scale); for pest or weed control at 500 g/ha: 500 g ai/ha
# Method in brief: as §1
# [11] = test system: ragweed (common ragweed, Ambrosia elatior); test: Test A postemergence; details: Ambrosia artemisiifolia, post-emergence, 240 h, postemergence
# Method in brief: as §1
# [12] = test system: ryegrass, Italian (Italian ryegrass, Lolium multiflorum); test: Test A postemergence; details: Lolium multiflorum, post-emergence, 240 h, postemergence
# Method in brief: as §1
# [13] = test system: wheat (Triticum aestivum); test: Test A postemergence; details: Triticum aestivum, post-emergence, 240 h; for plant injury at 125 g/ha: 125 g ai/ha, read-out: Wheat plant response rating (0 to 100 scale); for plant injury at 500 g/ha: 500 g ai/ha
# Method in brief: as §1
# [14] = 125 g ai/ha, visual injury rating, approximately 10 d
# [15] = postemergence, visual injury vs untreated controls after approx. 10 d, 0 = no effect, 100 = complete control
# [16] = preemergence, 0 to 100 scale (0 no effect, 100 complete control), read-out: Plant response rating, Barnyardgrass
# [17] = Preemergence, 0 to 100 scale (0 no effect, 100 complete control), read-out: Plant response rating, Barnyardgrass
# [18] = preemergence, 0 to 100 scale (0 no effect, 100 complete control), read-out: Plant response rating, Foxtail, Giant
# [19] = Preemergence, 0 to 100 scale (0 no effect, 100 complete control), read-out: Plant response rating, Foxtail, Giant
# [20] = preemergence, 0 to 100 scale (0 no effect, 100 complete control), read-out: Plant response rating, Pigweed
# [21] = Preemergence, 0 to 100 scale (0 no effect, 100 complete control), read-out: Plant response rating, Pigweed
# [22] = Postemergence, visual rating about 10 d after treatment, read-out: Barnyardgrass plant response rating (0 to 100 scale, 0 no effect, 100 complete control)
# [23] = Postemergence, visual injury, 0 to 100 scale (0 no effect, 100 complete control), approx. 10 d, read-out: Plant response rating, Barnyardgrass
# [24] = Postemergence, visual rating about 10 d after treatment
# [25] = Postemergence, visual injury, 0 to 100 scale (0 no effect, 100 complete control), approx. 10 d, read-out: Plant response rating, Foxtail, Giant
# [26] = Postemergence, visual injury, 0 to 100 scale (0 no effect, 100 complete control), approx. 10 d, read-out: Plant response rating, Pigweed
# [27] = Postemergence, visual injury, 0 to 100 scale (0 no effect, 100 complete control), approx. 10 d, read-out: Plant response rating, Wheat
smiles,measurement,setting,value
Cc1ccc([C@H]2CCN(C)C(=O)[C@@H]2C(=O)Nc2ccccc2C(F)(F)F)cc1 [Compound 1219],pest or weed control at 125 g/ha,Kochia (Kochia scoparia); [14],0%
same,pest or weed control at 500 g/ha,Kochia (Kochia scoparia); 500 g ai/ha,0%
same,pest or weed control at 125 g/ha,"[1]; preemergence, visual injury rating, 0 to 100 scale where 0 is no effect and 100 is complete control, approximately 10 d, read-out: Barnyardgrass plant response rating",70%
same,pest or weed control at 500 g/ha,"[1]; preemergence, 0 to 100 scale where 0 is no effect and 100 is complete control, read-out: Barnyardgrass plant response rating",90%
same,pest or weed control at 125 g/ha,"[2]; preemergence, visual injury rating, 0 to 100 scale where 0 is no effect and 100 is complete control, approximately 10 d, read-out: Foxtail, Giant plant response rating",80%
same,pest or weed control at 500 g/ha,"[2]; preemergence, 0 to 100 scale where 0 is no effect and 100 is complete control, read-out: Foxtail, Giant plant response rating",90%
same,pest or weed control at 125 g/ha,"[3]; preemergence, visual injury rating, 0 to 100 scale where 0 is no effect and 100 is complete control, approximately 10 d, read-out: Pigweed plant response rating",0%
same,pest or weed control at 500 g/ha,"[3]; preemergence, 0 to 100 scale where 0 is no effect and 100 is complete control, read-out: Pigweed plant response rating",0%
same,pest or weed control at 125 g/ha,[4]; [14],0%
same,pest or weed control at 500 g/ha,[4]; 500 g ai/ha,0%
same,pest or weed control at 125 g/ha,[5]; [14],0%
same,pest or weed control at 500 g/ha,[5]; 500 g ai/ha,0%
same,pest or weed control at 125 g/ha,"[6]; 125 g ai/ha, visual injury vs untreated controls after approx. 10 d, 0 = no effect, 100 = complete control, read-out: Galium plant response rating (0 to 100 scale)",0%
same,pest or weed control at 500 g/ha,"[6]; 500 g ai/ha, 0 to 100 scale, 0 is no effect, 100 is complete control, read-out: Galium plant response rating",0%
same,pest or weed control at 125 g/ha,"[7]; postemergence, visual injury vs untreated controls after approx. 10 d, 0 = no effect, 100 = complete control, read-out: Barnyardgrass plant response rating (0 to 100 scale)",30%
same,pest or weed control at 500 g/ha,"[7]; postemergence, 0 to 100 scale, 0 is no effect, 100 is complete control, read-out: Barnyardgrass plant response rating",60%
same,pest or weed control at 125 g/ha,"[8]; 125 g ai/ha, visual injury vs untreated controls after approx. 10 d, 0 = no effect, 100 = complete control, read-out: Blackgrass plant response rating (0 to 100 scale)",0%
same,pest or weed control at 500 g/ha,"[8]; 500 g ai/ha, 0 to 100 scale, 0 is no effect, 100 is complete control, read-out: Blackgrass plant response rating",0%
same,plant injury at 125 g/ha,corn (Zea mays); [15],0%
same,plant injury at 500 g/ha,"corn (Zea mays); 500 g ai/ha, postemergence, 0 to 100 scale, 0 is no effect, 100 is complete control, read-out: Corn plant response rating",0%
same,pest or weed control at 125 g/ha,[9]; [15],50%
same,pest or weed control at 500 g/ha,"[9]; postemergence, 0 to 100 scale, 0 is no effect, 100 is complete control, read-out: Foxtail, Giant plant response rating",80%
same,pest or weed control at 125 g/ha,[10]; [15],0%
same,pest or weed control at 500 g/ha,"[10]; postemergence, 0 to 100 scale, 0 is no effect, 100 is complete control, read-out: Pigweed plant response rating",0%
same,pest or weed control at 125 g/ha,"[11]; 125 g ai/ha, visual injury vs untreated controls after approx. 10 d, 0 = no effect, 100 = complete control, read-out: Ragweed plant response rating (0 to 100 scale)",0%
same,pest or weed control at 500 g/ha,"[11]; 500 g ai/ha, 0 to 100 scale, 0 is no effect, 100 is complete control, read-out: Ragweed plant response rating",20%
same,pest or weed control at 125 g/ha,"[12]; 125 g ai/ha, visual injury vs untreated controls after approx. 10 d, 0 = no effect, 100 = complete control, read-out: Ryegrass, Italian plant response rating (0 to 100 scale)",0%
same,pest or weed control at 500 g/ha,"[12]; 500 g ai/ha, 0 to 100 scale, 0 is no effect, 100 is complete control, read-out: Ryegrass, Italian plant response rating",20%
same,plant injury at 125 g/ha,[13]; [15],0%
same,plant injury at 500 g/ha,"[13]; postemergence, 0 to 100 scale, 0 is no effect, 100 is complete control, read-out: Wheat plant response rating",0%
O=C1NCC(c2ccccc2)C1C(=O)Nc1ccc(C(F)(F)F)cc1 (centres unmarked) [Compound 1362],pest or weed control at 500 g/ha,[1]; [16],0%
same,pest or weed control at 125 g/ha,[1]; [17],0%
same,pest or weed control at 500 g/ha,[2]; [18],0%
same,pest or weed control at 125 g/ha,[2]; [19],0%
same,pest or weed control at 500 g/ha,[3]; [20],0%
same,pest or weed control at 125 g/ha,[3]; [21],0%
same,pest or weed control at 125 g/ha,[7]; [22],0%
same,pest or weed control at 500 g/ha,[7]; [23],0%
same,plant injury at 125 g/ha,corn (Zea mays); [24],0%
same,"Corn plant response rating (crop injury, 0 = no effect, 100 = complete kill) at 500 g/ha","corn (Zea mays); Postemergence, 500 g ai/ha",0%
same,pest or weed control at 125 g/ha,[9]; [24],0%
same,pest or weed control at 500 g/ha,[9]; [25],0%
same,pest or weed control at 125 g/ha,[10]; [24],0%
same,pest or weed control at 500 g/ha,[10]; [26],0%
same,plant injury at 125 g/ha,[13]; [24],0%
same,plant injury at 500 g/ha,[13]; [27],0%
O=C1NCC(c2ccccc2)C1C(=O)Nc1cc(F)ccc1F (centres unmarked) [Compound 1359],pest or weed control at 500 g/ha,[1]; [16],0%
same,pest or weed control at 125 g/ha,[1]; [17],0%
same,pest or weed control at 500 g/ha,[2]; [18],0%
same,pest or weed control at 125 g/ha,[2]; [19],0%
same,pest or weed control at 500 g/ha,[3]; [20],0%
same,pest or weed control at 125 g/ha,[3]; [21],0%
same,pest or weed control at 125 g/ha,[7]; [22],0%
same,pest or weed control at 500 g/ha,[7]; [23],0%
same,plant injury at 125 g/ha,corn (Zea mays); [24],0%
same,"Corn plant response rating (crop injury, 0 = no effect, 100 = complete kill) at 500 g/ha","corn (Zea mays); Postemergence, 500 g ai/ha",0%
same,pest or weed control at 125 g/ha,[9]; [24],0%
same,pest or weed control at 500 g/ha,[9]; [25],0%
same,pest or weed control at 125 g/ha,[10]; [24],0%
same,pest or weed control at 500 g/ha,[10]; [26],0%
same,plant injury at 125 g/ha,[13]; [24],0%
same,plant injury at 500 g/ha,[13]; [27],0%
